This note sets out measurements from patent publication US11478460B2, “Diaryl substituted 6,5-fused ring compounds as C5aR inhibitors” (CHEMOCENTRYX, INC., priority 2017, dated 2022).

The target in this assay is C5aR (Homo sapiens (Human), UniProt P21730). The assay is described as follows: Chemotaxis assay using U937 cells (C5aR mediated migration). Format: cell-based. To be noted: read-out: Mig IC50. In a few lines: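 U937 monocytic cells, pretreated overnight with 0.5 mM cyclic AMP, placed at 100,000 cells in the upper well above 5 μm polycarbonate filters. Lower well held 0.03 nM C5a plus compound in HBSS/1% FBS; after 1.5 h at 37° C migrated cells counted directly or by CyQuant, giving IC50.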
Chain of C5aR (P21730 whole entry): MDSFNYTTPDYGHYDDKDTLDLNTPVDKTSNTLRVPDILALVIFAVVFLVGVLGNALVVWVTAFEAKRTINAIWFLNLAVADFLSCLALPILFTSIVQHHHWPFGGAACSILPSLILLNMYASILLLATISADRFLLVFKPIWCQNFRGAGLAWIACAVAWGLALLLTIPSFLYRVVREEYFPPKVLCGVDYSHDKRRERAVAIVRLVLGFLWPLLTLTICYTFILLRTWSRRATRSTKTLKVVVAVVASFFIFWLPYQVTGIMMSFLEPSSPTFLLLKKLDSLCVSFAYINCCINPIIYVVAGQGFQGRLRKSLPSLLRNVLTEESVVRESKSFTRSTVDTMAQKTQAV
Turning to `CCc1cccc(CC)c1-n1nc2c(c1-c1ccc(NC(N)=O)cc1)CN(c1ncc(C(F)(F)F)cc1F)CC2` [Example 1.301], the concentration for half-maximal inhibition (IC50) (as a rule, the concentration needed to halve the response being measured) is 5 to 50 nM.

In the case of `Cc1cccc(OCC(C)C)c1-n1nc2c(c1-c1ccc(NC(N)=O)cc1)CN(C(=O)Cc1ccccc1)CC2` [Example 1.430], the concentration for half-maximal inhibition (IC50) was above 500 nM.

In the case of `CCc1cccc(CC)c1-n1nc2c(c1-c1ccc(NC(N)=O)c(F)c1)CN(C(CC)CC)CC2` [Example 1.219], the IC50 lay in the range of 5 to 50 nM.

Regarding `CCc1cccc(CC)c1-n1nc2c(c1-c1cc(F)c(NC(N)=O)cc1F)CN(Cc1ccc(C(F)(F)F)cc1C(F)(F)F)CC2` [Example 1.077], the concentration for half-maximal inhibition (IC50) was at most 5 nM.

As to `CCc1cccc(CC)c1-n1nc2c(c1-c1cc(F)c(NC(N)=O)cc1F)CN(Cc1ccc(C(F)(F)F)cc1F)C(C)(C)C2` [Example 1.050], the half-maximal inhibitory concentration (IC50) is at most 5 nM.

Take `CCc1cccc(CC)c1-n1nc2c(c1-c1cc(F)c(NC(N)=O)cc1F)CN(c1ncc(Cl)cc1Cl)[C@@H](C)C2` [Example 1.013]: the IC50 was at most 5 nM.

Take `CCc1cccc(CC)c1-n1nc2c(c1-c1ccc(NC(N)=O)c(F)c1)CN(CC(C)(C)C)CC2` [Example 1.253]: the 50% inhibitory concentration (IC50) is at most 5 nM.

On to `Cc1cccc(OCC(C)C)c1-n1nc2c(c1-c1ccc(NC(N)=O)cc1)CN(C(=O)C1CCCCC1)CC2` [Example 1.425], for which the IC50 is above 500 nM.

In the case of `Cc1cc(C(C)C)cnc1N1CCc2nn(-c3c(C)cccc3OCC(C)C)c(-c3cc(F)c(NC(N)=O)cc3F)c2C1` [Example 1.185], the IC50 was at most 5 nM.

On to `Cc1cccc(C(C)C)c1-n1nc2c(c1-c1ccc(NC(N)=O)cc1)CN(C(=O)OC(C)(C)C)CC2` [Example 1.428], for which the half-inhibitory concentration (IC50) lay within 50 to 500 nM.

Turning to `Cc1cc(NC(N)=O)c(F)cc1-c1c2c(nn1-c1c(C)cccc1C)CCN(c1ccc(Cl)cc1Cl)C2` [Example 1.118], the IC50 was at most 5 nM.

In the case of `Cc1cccc(OCC(C)C)c1-n1nc2c(c1-c1ccc(NC(N)=O)cc1)CN(Cc1c(F)cccc1C(F)(F)F)CC2` [Example 1.351], the half-inhibitory concentration (IC50) is at most 5 nM.

With `Cc1cccc(Cl)c1CN1CCc2nn(-c3c(C)cccc3OCC(C)C)c(-c3ccc(NC(N)=O)cc3)c2C1` [Example 1.359], the half-maximal inhibitory concentration (IC50) was at most 5 nM.

Consider `CCc1cccc(CC)c1-n1nc2c(c1-c1cc(F)c(NC(N)=O)cc1F)CN(Cc1cc(C(F)(F)F)ccc1C(F)(F)F)C(C)(C)C2` [Example 1.011], for which the IC50 was at most 5 nM.

Turning to `Cc1cc(C)c(-n2nc3c(c2-c2ccc(NC(N)=O)cc2)CN(c2ncc(C(F)(F)F)cc2F)CC3)c(C)c1` [Example 1.287], the concentration for half-maximal inhibition (IC50) fell in the range of 5 to 50 nM.

Regarding `Cc1cccc(C)c1-n1nc2c(c1-c1cc(F)c(NC(N)=O)cc1F)CN(C(C)(C)CO)CC2` [Example 1.088], the IC50 was above 500 nM.

Take `Cc1ccc(CN2CCc3nn(-c4c(C)cccc4OCC(C)C)c(-c4ccc(NC(N)=O)cc4)c3C2)c(F)c1` [Example 1.308]: the half-maximal inhibitory concentration (IC50) is at most 5 nM.

Take `Cc1cccc(OCC(C)C)c1-n1nc2c(c1-c1ccc(NC(N)=O)cc1)CN(Cc1c(F)cc(C(F)(F)F)cc1C(F)(F)F)CC2` [Example 1.334]: the IC50 is at most 5 nM.

For the molecule `Cc1cccc(C)c1-n1nc2c(c1-c1ccc(NC(C)C)cc1)CN(c1ccccc1C(C)C)CC2` [Example 1.477], the 50% inhibitory concentration (IC50) was 50 to 500 nM.

Turning to `CCc1cccc(CC)c1-n1nc2c(c1-c1cc(F)c(NC(N)=O)cc1F)CN(Cc1cc(Cl)ccc1Cl)C(C)(C)C2` [Example 1.023], the concentration for half-maximal inhibition (IC50) is at most 5 nM.

On to `CCc1cccc(CC)c1-n1nc2c(c1-c1cc(F)c(NC(N)=O)cc1F)CN(Cc1cn(C)nc1C(F)(F)F)CC2` [Example 1.075], for which the IC50 was in the range of 5 to 50 nM.

Take `Cc1cccc(C)c1-n1nc2c(c1-c1cc(F)c(NC(N)=O)cc1F)CN(c1ncc(Cl)cn1)CC2` [Example 1.155]: the concentration for half-maximal inhibition (IC50) is 5 to 50 nM.

Regarding `COc1cccc(C)c1-n1nc2c(c1-c1ccc(N)cc1)CN(c1ccccc1C(C)C)CC2` [Example 1.486], the IC50 lay within 50 to 500 nM.

Consider `CCc1cccc(CC)c1-n1nc2c(c1-c1cc(F)c(NC(N)=O)cc1F)CN(Cc1ccc(Cl)cc1Cl)CC2` [Example 1.073], for which the IC50 is at most 5 nM.

As to `Cc1cccc(OCC(C)C)c1-n1nc2c(c1-c1cc(F)c(NC(N)=O)cc1F)CN(c1ncccn1)CC2` [Example 1.160], the IC50 was at most 5 nM.

As for `Cc1cccc(OCC(C)C)c1-n1nc2c(c1-c1ccc(NC(N)=O)cc1)CN(C(C)c1ccc(C(F)(F)F)cc1)CC2` (stereo not drawn) [Example 1.303], the 50% inhibitory concentration (IC50) was 5 to 50 nM.

`Cc1cccc(OCC(C)C)c1-n1nc2c(c1-c1cc(F)c(NC(N)=O)cc1F)CN(c1ncc(Cl)cc1Cl)CC2` [Example 1.210]: the IC50 was at most 5 nM.

Turning to `Cc1cccc(C)c1-n1nc2c(c1-c1ccc(N)cc1)CN(c1ccccc1C(C)(C)C)CC2` [Example 1.471], the IC50 lay within 5 to 50 nM.

As for `CCc1cccc(CC)c1-n1nc2c(c1-c1cc(F)c(NC(N)=O)cc1C)CN(C(C)c1ccccc1C(F)(F)F)CC2` (stereo not drawn) [Example 1.197], the IC50 is at most 5 nM.

`Cc1cccc(C)c1-n1nc2c(c1-c1ccc(C(N)=O)c(F)c1)CN(c1ncc(Cl)cc1Cl)CC2` [Example 1.110]: the IC50 is above 500 nM.

For the molecule `Cc1cccc(OCC(C)C)c1-n1nc2c(c1-c1ccc(NC(N)=O)c(F)c1)CN(S(=O)(=O)c1ccccc1)CC2` [Example 1.237], the IC50 lay in the range of 5 to 50 nM.

As to `Cc1cccc(OCC(C)C)c1-n1nc2c(c1-c1ccc(NC(N)=O)cc1)CN(c1ccccc1C(C)(C)C)CC2` [Example 1.454], the concentration for half-maximal inhibition (IC50) was at most 5 nM.

Turning to `Cc1cccc(C)c1-n1nc2c(c1-c1cc(F)c(NC(=O)CO)cc1F)CN(c1ncc(Cl)cc1Cl)CC2` [Example 1.125], the IC50 lay in the range of 50 to 500 nM.

Take `Cc1cccc(OCC(C)C)c1-n1nc2c(c1-c1ccc(NC(N)=O)cc1)CN(c1nc(C(F)(F)F)ccc1C(F)(F)F)CC2` [Example 1.339]: the IC50 was at most 5 nM.

In the case of `Cc1cccc(OCC(C)C)c1-n1nc2c(c1-c1cc(F)c(NC(N)=O)c(F)c1)CN(c1ncc(C(F)(F)F)cc1F)CC2` [Example 1.263], the concentration for half-maximal inhibition (IC50) was 50 to 500 nM.

Turning to `Cc1cccc(C)c1-n1nc2c(c1-c1cc(F)c(NC(N)=O)cc1F)CN(c1ncc(C(C)C)cn1)CC2` [Example 1.153], the half-maximal inhibitory concentration (IC50) is 5 to 50 nM.

Turning to `Cc1cccc(C)c1-n1nc2c(c1-c1cc(F)c(NC(N)=O)cc1F)CN(CC(C)(C)O)CC2` [Example 1.086], the IC50 is above 500 nM.

As to `Cc1cccc(OCC(C)C)c1-n1nc2c(c1-c1cc(F)c(NC(N)=O)cc1F)CN(c1ccc(Cl)cn1)CC2` [Example 1.182], the 50% inhibitory concentration (IC50) is at most 5 nM.

On to `NC(=O)Nc1cc(F)c(-c2c3c(nn2-c2ccccc2OC(F)(F)F)CCN(c2ncc(Cl)cc2Cl)C3)cc1F` [Example 1.167], for which the IC50 was at most 5 nM.

Regarding `Cc1cccc(OCC(C)C)c1-n1nc2c(c1-c1cc(F)c(NC(N)=O)cc1F)CN(C(c1ccccc1)C(F)(F)F)CC2` (stereo not drawn) [Example 1.196], the IC50 is at most 5 nM.

As to `Cc1cccc(F)c1-n1nc2c(c1-c1ccc(N)cc1)CN(c1ccccc1C(C)C)CC2` [Example 1.464], the IC50 lay within 50 to 500 nM.

For the molecule `Cc1cccc(OCC(C)C)c1-n1nc2c(c1-c1ccc(NC(N)=O)cc1)CN(Cc1cc(Cl)ccc1OC(C)C)CC2` [Example 1.280], the concentration for half-maximal inhibition (IC50) lay within 5 to 50 nM.

On to `Cc1cccc(OCC(C)C)c1-n1nc2c(c1-c1ccc(NC(N)=O)cc1)CN(Cc1cc(F)ccc1F)CC2` [Example 1.310], for which the IC50 was in the range of 5 to 50 nM.

Consider `Cc1ccc(C(F)(F)F)c(CN2CCc3nn(-c4c(C)cccc4OCC(C)C)c(-c4ccc(NC(N)=O)cc4)c3C2)c1` [Example 1.300], for which the IC50 was at most 5 nM.

On to `Cc1cccc(OCC(C)C)c1-n1nc2c(c1-c1ccc(NC(N)=O)c(F)c1)CN(CC(C)C(F)(F)F)CC2` (stereo not drawn) [Example 1.262], for which the IC50 was at most 5 nM.

`Cc1cccc(OCC(C)C)c1-n1nc2c(c1-c1ccc(C(N)=O)cc1)CN(C(=O)OC(C)(C)C)CC2` [Example 1.411]: the IC50 was above 500 nM.

Consider `CCNc1ccc(-c2c3c(nn2-c2c(C)cccc2OC)CCN(c2ccccc2C(C)C)C3)cc1` [Example 1.476], for which the IC50 was in the range of 5 to 50 nM.

For the molecule `NC(=O)Nc1cc(F)c(-c2c3c(nn2-c2ccccc2OCC(F)(F)F)CCN(c2ncc(Cl)cc2Cl)C3)cc1F` [Example 1.143], the IC50 is at most 5 nM.

In the case of `Cc1cccc(OCC(C)C)c1-n1nc2c(c1-c1ccc(NC(N)=O)cc1)CN(Cc1cc(Cl)ccc1Cl)CC2` [Example 1.324], the IC50 is at most 5 nM.

Take `Cc1cccc(OCC(C)C)c1-n1nc2c(c1-c1ccc(NC(N)=O)c(F)c1)CN(C(C)C1CCCCC1)CC2` (stereo not drawn) [Example 1.232]: the IC50 is at most 5 nM.

In the case of `COc1cccc(C)c1-n1nc2c(c1-c1ccc(NC(N)=O)cc1)CN(c1ccccc1C(C)C)CC2` [Example 1.482], the IC50 is 5 to 50 nM.

As to `CCc1cccc(CC)c1-n1nc2c(c1-c1cc(F)c(NC(N)=O)cc1F)CN(Cc1ccc(C(F)(F)F)cc1OC)CC2` [Example 1.058], the IC50 was at most 5 nM.

Consider `CCc1cccc(CC)c1-n1nc2c(c1-c1ccc(NC(N)=O)cc1)CN(Cc1c(C)cccc1C)CC2` [Example 1.290], for which the IC50 was 5 to 50 nM.

Turning to `Cc1cccc(OCC(C)C)c1-n1nc2c(c1-c1ccc(NC(N)=O)cc1)CN(c1ccc(C(F)(F)F)c(Cl)c1)CC2` [Example 1.413], the IC50 fell in the range of 5 to 50 nM.

`Cc1ccc(N2CCc3nn(-c4c(C)cccc4OCC(C)C)c(-c4ccc(NC(N)=O)cc4)c3C2)c(C(F)(F)F)c1` [Example 1.321]: the IC50 was at most 5 nM.

Turning to `CCc1cccc(CC)c1-n1nc2c(c1-c1cc(F)c(NC(N)=O)cc1F)CN(C(=O)c1ccnn1C)C(C)(C)C2` [Example 1.005], the half-inhibitory concentration (IC50) lay in the range of 5 to 50 nM.

Consider `Cc1cccc(C)c1-n1nc2c(c1-c1cc(F)c(NC(N)=O)cc1F)CN(c1cc(C(F)(F)F)ccc1F)CC2` [Example 1.094], for which the half-inhibitory concentration (IC50) is at most 5 nM.

`Cc1cccc(OCC(C)C)c1-n1nc2c(c1-c1ccc(NC(N)=O)cc1)CN(c1ccc(Cl)c(C(F)(F)F)c1)CC2` [Example 1.379]: the half-inhibitory concentration (IC50) was in the range of 5 to 50 nM.

In the case of `CCc1cccc(CC)c1-n1nc2c(c1-c1cc(F)c(NC(N)=O)cc1F)CN(Cc1cc(C(F)(F)F)ccc1OC)CC2` [Example 1.037], the IC50 was at most 5 nM.

For `Cc1cccc(OCC(C)C)c1-n1nc2c(c1-c1ccc(NC(N)=O)c(F)c1)CN(c1nc(Cl)ns1)CC2` [Example 1.246], the IC50 is 5 to 50 nM.
